From paper PMC11329928, “Design, synthesis and structure-activity relationship (SAR) studies of an unusual class of non-cationic fatty amine-tripeptide conjugates as novel synthetic antimicrobial agents” (Frontiers in Pharmacology, 2024)
Structures can show the parent of a compound that is named as a salt.

Key:
[1] = Calcein release from LUVs; settings: 10 μM DICAM, 25°C; for Permeation of DOPE:POPG:CL (80:15:5) LUVs, result in words: vesicle buffer pH 7.4, calcein release; for Leak of calcein from pure POPG LUVs, result in words: vesicle buffer (10 mM Tris, 140 mM NaCl, 0.5 mM EDTA, pH 7.4), fluorescence 480/550 nm, normalised to 0.025% Triton-X100
Description: LUVs were prepared for calceine liberation assays as described ([Chongsiriwatana and Barron, 2009]). Lipid composition (mole %) of LUVs was: POPG (100), POPG:CL (80:20), POPG:CL:DOPE ([…]), and POPG:CL:GlcDAG (75:5:20). Briefly, the nitrogen-dried lipid mixture was dissolved at 1.25 mM with 100 mM calceine in vesicle buffer (10 mM Tris, 140 mM NaCl, 0.5 mM EDTA, pH 7.4) followed by five thaw-freeze cycles. Calceine-entrapped LUVs were prepared by extrusion through 100 nm polycarbonate membranes (Avanti Polar Lipids). Non-entrapped calceine was separated from LUVs by gel filtration on a Sephacryl® S200-HR column (Sigma). LUVs permeabilization was monitored at 25°C by fluorescence emission at 550 nm (λex = 480 nm) as a function of time in a Fluoromax-4 spectrofluorometer (Horiba, France) using agitation. Signal stabilization of samples (1,500 µL vesicle buffer plus 45 µL LUVs) was recorded for 5 min before 10 µM final DICAM addition, and calcein release was monitored for a maximum of 20 min. After incubation, samples were solubilized in Triton X-100 (0.025%) and the fluorescence signal recorded thereafter was used to normalize the entire data set. Solubilization of DICAM-untreated LUVs in Triton X-100 was used as a positive control. No perturbation was detected in controls containing DMSO.

[2] = tested on: S. pyogenes T membrane; experiment: Membrane permeation, SYTOX Green; format: cell-based, Streptococcus pyogenes
Description: (§1) Permeation and depolarization of S. pyogenes ^T membrane by DICAMs were assayed with the fluorescent probes SYTOX Green and DiSC3(5), respectively, in a Varioskan Flash microplate reader (Thermo Scientific; Spain) using FluoroNunc 96-well plates (Thermo Scientific; Spain). For permeation assays, cells were grown to an OD550 ≈ 0.3, washed once with PBS pH 7.2 (3,800 × g, 7 min, room temperature), and adjusted to a final OD550 ≈ 0.4 (∼10^8 CFU/mL) with the same buffer before mixing in the dark with SYTOX Green (5 µM final concentration). One hundred µL of this suspension was dispensed per plate well and the signal stabilization was monitored for 15 min (λex = 485 nm; λem = 520 nm). Then, 100 µL of two-fold serially diluted lipopeptide samples was added and changes in fluorescence intensity were registered for 60 min at 37°C. SYTOX Green (900 Da) binds to intracellular DNA when the cell membrane is damaged, thereby increasing fluorescence intensity ([Roth et al., 1997]). Positive controls (100% membrane permeabilization) were carried out by adding Titron X-100 (0.01% final concentration) to untreated bacterial samples ([Rathinakumar et al., 2009]). For membrane depolarization assays, 180 µL of an OD550 ≈ 0.2 culture (BHI; ≈ 10^7 CFU/mL) supplemented with DiSC3(5) (1 µM final concentration) was distributed per well, and signal stabilization was registered for 30 min (λex = 622 nm; λem = 670 nm) ([Te Winkel et al., 2016]). Subsequently, 20 µL of a two-fold serial dilution of lipopeptide in culture medium was added, and fluorescence intensity was recorded for 60 min at 37°C. Partition of DiSC3(5) to the surface of polarized cells decreases the probe fluorescence, and its release, caused by membrane depolarization, results in an increase in fluorescence. […] The background signal of controls with bacterial cells without the fluorescent probe, as well as the dye fluorescence in the presence of the tested compounds without bacteria, were also registered. No change in the fluorescence intensity of the probes occurred upon DICAM addition in the absence of bacterial cells.

[3] = tested on: S. pyogenes T membrane; experiment: Membrane depolarization, DiSC3(5); format: cell-based, Streptococcus pyogenes; settings: S. pyogenes T in BHI, OD550 ≈ 0.2, DiSC3(5) 1 µM, 37°C
Description: as §1

[4] = tested on: S. pneumoniae D39; experiment: Viability after challenge at mid-exponential (T2) or early stationary (T3) phase; format: cell-based, Streptococcus pneumoniae; settings: S. pneumoniae D39, 50 µM, C+Y, 37°C
Description: The effect of DICAMs at different phases of culture growth was also investigated. DICAMs (50 μM) were added to cultures in the early exponential phase (OD550 ≈ 0.15; T1), late exponential phase (OD550 ≈ 0.3–0.4; T2), or near the stationary phase of growth (OD550 ≈ 0.5–0.7; T3) and the evolution of OD values was followed at 37°C for at least 2 h. By default, the variation in cell viability was also determined. Negative and positive controls were run in parallel.

[5] = tested on: A549, IMR-90 and HeLa cells; settings: 48 h
Description: DICAM’s cytotoxicity was determined employing a modified MTT assay as described elsewhere ([Antúnez-Mojica et al., 2016]) using human lung carcinoma epithelial cells A549, human fetal lung fibroblasts IMR-90, and human HeLa cervix carcinoma cells treated with increasing concentrations of DICAMs (0.8–200 µM range). A549 cells were grown in RPMI 1640 (Gibco; Fisher Scientific, Spain) supplemented with 10% FCS, 2 mM glutamine, 100 IU/mL penicillin and 100 μg/mL streptomycin. IMR-90 and HeLa cells were cultured in DMEM (Gibco; Fisher Scientific, Spain) supplemented with 10% FCS, 2 mM L-glutamine, 1 mM pyruvate, 100 IU/L penicillin, 100 μg/mL streptomycin and 40 μg/mL gentamycin. Cell viability was assessed after 48 h exposure to DICAMs. Vinblastine was used as a positive control. IC50 value is the concentration that gives 50% inhibition of cell growth and was determined using SigmaPlot (Systat) fitting to a Four Parameter Logistic curve.

Compound: CCCCCCCCCCCCCCCCCCNC(=O)[C@H](CCC(=O)O)NC(=O)[C@H]1CCCN1C(=O)[C@@H](N)CC(N)=O [DICAM 2, Asn- Pro -Glu-NH-C18H37 ·HCl]
- Permeation of DOPE:POPG:CL (80:15:5) LUVs, result in words [1]: did not permeate

Compound: CCCCCCCCCCCCCCCCCCNC(=O)[C@H](CCC(=O)O)NC(=O)[C@H]1CCCN1C(=O)[C@H](C)NC(=O)OCc1ccccc1 [DICAM 3, Cbz-Ala- Pro -Glu-NH-C18H37]
- Lag before steady increase in SYTOX Green fluorescence ([2]; S. pyogenes T in PBS pH 7.2, SYTOX Green 5 µM, 37°C, dose-dependent lag): more than 7 min
- Time to plateau of SYTOX green influx (incomplete influx) ([2]; S. pyogenes T, below 12.5 µM compound): around 40 min
- Time for dissipation of the transmembrane potential [3]: 5 to 10 min

Compound: CCCCCCCCCCCCCCCCCCNC(=O)[C@H](CCC(=O)O)NC(=O)[C@H]1CCCN1C(=O)[C@H](C)N [DICAM 4, Ala- Pro -Glu-NH-C18H37 ·HCl]
- Death, addition at T3, approximately 3 h [4]: ≥ 98%
- Decrease of viability, addition at T3, approximately 3 h [4]: ≈ 1.7 log units
- Decrease of viability, addition at T2, 30 min ([4]; 30 min incubation): ≈ 3 log units
- Decrease of viability, addition at T2, 3 h ([4]; 3 h incubation): ~5 log units
- Leak of calcein from pure POPG LUVs, result in words [1]: full
- Permeation of DOPE:POPG:CL (80:15:5) LUVs, result in words [1]: did not permeate

Compound: CCCCCCCCCCCCCCCCCCNC(=O)[C@H](C)NC(=O)[C@H]1CCCN1C(=O)[C@H](C)N [DICAM 14, Ala- Pro -Ala-NH-C18H37 · HCl]
- IC50 [5]: 7.3 µM

Compound: CCCCCCCCCCCCCCCCCCNC(=O)[C@H](CCC(=O)O)NC(=O)[C@H]1CCCN1C(=O)[C@H](CCC(=O)O)NC(=O)OCc1ccccc1 [DICAM 19, Cbz-Glu- Pro -Glu-NH-C18H37]
- Time for dissipation of the transmembrane potential [3]: 5 to 10 min

Compound: CCCCCCCCCCCCCCCCCCNC(=O)[C@H](CCC(=O)O)NC(=O)[C@H]1CCCN1C(=O)[C@@H](N)CCC(=O)O [DICAM 20, Glu- Pro -Glu-NH-C18H37 · HCl]
- Leak of calcein from pure POPG LUVs, result in words [1]: partial

Compound: CCCCCCCCCCCCCCCCCCNC(=O)[C@H](CCC(=O)O)NC(=O)[C@H]1CCCN1C(=O)[C@H](CCCN)NC(=O)OCc1ccccc1 [DICAM 21, Cbz-Orn- Pro -Glu-NH-C18H37]
- Permeation of DOPE:POPG:CL (80:15:5) LUVs, result in words [1]: able to permeate and release calcein

Compound: Ala - Pro -Glu-NH-C18H37 · HCl [DICAM 23]
- Leak of calcein from pure POPG LUVs, result in words [1]: full
